Results: ChEMBL document CHEMBL4507292 (2021)

Assays:
[1] = target: D(1A) dopamine receptor (Homo sapiens, UniProt P21728); experiment: GPCRScan assay: inhibition of D1; set-up: radioligand conc. used [nm] 0.6 – 1.3, parental cells HEKT
[2] = target: Alpha-1B adrenergic receptor (Homo sapiens, UniProt P35368); experiment: GPCRScan assay: inhibition of Alpha1B; set-up: radioligand conc. used [nm] 0.3 – 1.0, parental cells stable HEK
[3] = system: Tyrosine-protein kinase ABL1 (Homo sapiens), P00519 [Q252H]; details: Compound concentration 1000.0 nM
[4] = target: Aurora kinase B (Homo sapiens) (UniProt Q96GD4); details: Compound concentration 1000.0 nM
Aurora kinase B (Homo sapiens), sequence (Q96GD4 whole entry): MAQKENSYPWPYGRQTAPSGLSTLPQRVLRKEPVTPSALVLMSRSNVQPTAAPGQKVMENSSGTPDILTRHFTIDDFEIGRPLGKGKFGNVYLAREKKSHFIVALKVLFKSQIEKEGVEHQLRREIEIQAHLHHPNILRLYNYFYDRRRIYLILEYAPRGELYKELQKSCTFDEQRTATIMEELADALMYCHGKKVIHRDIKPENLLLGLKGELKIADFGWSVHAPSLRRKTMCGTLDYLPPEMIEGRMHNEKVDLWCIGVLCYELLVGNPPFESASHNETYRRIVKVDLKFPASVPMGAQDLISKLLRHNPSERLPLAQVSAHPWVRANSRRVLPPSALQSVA

[5] = target: Cyclin-dependent kinase 4 (Homo sapiens) (UniProt P11802); details: Compound concentration 1000.0 nM
Cyclin-dependent kinase 4 (Homo sapiens), sequence (P11802 whole entry, canonical isoform): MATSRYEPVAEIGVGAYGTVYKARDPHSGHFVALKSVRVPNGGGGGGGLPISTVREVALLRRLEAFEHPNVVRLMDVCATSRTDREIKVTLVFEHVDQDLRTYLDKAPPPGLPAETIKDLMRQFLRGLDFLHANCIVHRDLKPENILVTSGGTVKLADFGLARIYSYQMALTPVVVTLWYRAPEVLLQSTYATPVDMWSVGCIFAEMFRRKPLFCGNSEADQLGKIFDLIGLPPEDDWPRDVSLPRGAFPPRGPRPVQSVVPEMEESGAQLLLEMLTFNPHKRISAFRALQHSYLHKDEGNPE

[6] = target: Casein kinase I isoform delta (Homo sapiens) (UniProt P48730); details: Compound concentration 1000.0 nM
[7] = target: Death-associated protein kinase 3 (Homo sapiens) (UniProt O43293); details: Compound concentration 1000.0 nM
[8] = system: Epidermal growth factor receptor (Homo sapiens), P00533 [UNDEFINED MUTATION]; details: Compound concentration 1000.0 nM
[9] = target: Ephrin type-A receptor 4 (Homo sapiens) (UniProt P54764); details: Compound concentration 1000.0 nM
[10] = target: Fibroblast growth factor receptor 1 (Homo sapiens) (UniProt P11362); details: Compound concentration 1000.0 nM
Fibroblast growth factor receptor 1 (Homo sapiens), sequence (P11362 22-822 limits assumed): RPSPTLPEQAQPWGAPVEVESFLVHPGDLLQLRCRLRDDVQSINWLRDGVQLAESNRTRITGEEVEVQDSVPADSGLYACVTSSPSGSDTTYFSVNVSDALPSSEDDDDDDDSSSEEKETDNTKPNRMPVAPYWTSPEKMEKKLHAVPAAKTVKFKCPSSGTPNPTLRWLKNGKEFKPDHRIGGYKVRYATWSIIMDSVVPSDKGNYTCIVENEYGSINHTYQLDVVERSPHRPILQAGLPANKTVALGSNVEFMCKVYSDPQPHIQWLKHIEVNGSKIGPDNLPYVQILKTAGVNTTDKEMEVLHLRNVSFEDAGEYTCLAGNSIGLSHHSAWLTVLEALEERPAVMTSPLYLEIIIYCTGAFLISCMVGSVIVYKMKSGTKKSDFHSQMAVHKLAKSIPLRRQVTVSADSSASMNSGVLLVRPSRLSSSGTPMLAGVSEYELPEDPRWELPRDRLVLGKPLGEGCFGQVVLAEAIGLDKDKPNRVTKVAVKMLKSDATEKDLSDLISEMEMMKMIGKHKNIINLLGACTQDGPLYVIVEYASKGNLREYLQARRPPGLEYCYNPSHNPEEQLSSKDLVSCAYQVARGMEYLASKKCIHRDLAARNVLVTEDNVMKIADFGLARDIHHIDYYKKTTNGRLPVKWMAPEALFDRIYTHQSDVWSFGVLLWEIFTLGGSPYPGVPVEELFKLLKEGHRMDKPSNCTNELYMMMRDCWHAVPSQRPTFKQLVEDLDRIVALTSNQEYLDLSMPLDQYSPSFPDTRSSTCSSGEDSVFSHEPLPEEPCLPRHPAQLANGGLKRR

[11] = target: Homeodomain-interacting protein kinase 3 (Homo sapiens) (UniProt Q9H422); details: Compound concentration 1000.0 nM
[12] = target: Inhibitor of nuclear factor kappa-B kinase subunit epsilon (Homo sapiens) (UniProt Q14164); details: Compound concentration 1000.0 nM
[13] = target: Interleukin-1 receptor-associated kinase 4 (Homo sapiens) (UniProt Q9NWZ3); details: Compound concentration 1000.0 nM
Interleukin-1 receptor-associated kinase 4 (Homo sapiens), sequence (Q9NWZ3 whole entry): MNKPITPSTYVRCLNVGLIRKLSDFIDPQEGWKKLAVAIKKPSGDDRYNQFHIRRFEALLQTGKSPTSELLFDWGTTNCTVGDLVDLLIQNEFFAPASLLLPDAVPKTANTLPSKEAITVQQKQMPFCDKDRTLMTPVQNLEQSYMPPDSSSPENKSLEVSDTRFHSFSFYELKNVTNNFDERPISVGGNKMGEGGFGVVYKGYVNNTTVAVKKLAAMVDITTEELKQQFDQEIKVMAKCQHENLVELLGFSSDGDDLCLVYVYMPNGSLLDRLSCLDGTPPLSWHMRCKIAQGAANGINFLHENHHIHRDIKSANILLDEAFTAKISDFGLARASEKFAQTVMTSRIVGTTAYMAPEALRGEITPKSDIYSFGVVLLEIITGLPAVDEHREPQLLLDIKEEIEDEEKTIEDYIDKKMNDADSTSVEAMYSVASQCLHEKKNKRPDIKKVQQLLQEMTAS

[14] = system: Mast/stem cell growth factor receptor Kit (Homo sapiens), P10721 [V559D]; details: Compound concentration 1000.0 nM
[15] = target: MAP kinase-activated protein kinase 2 (Homo sapiens) (UniProt P49137); details: Compound concentration 1000.0 nM
[16] = target: Mitogen-activated protein kinase kinase kinase 9 (Homo sapiens) (UniProt P80192); details: Compound concentration 1000.0 nM
[17] = target: Serine/threonine-protein kinase mTOR (Homo sapiens) (UniProt P42345); details: Compound concentration 1000.0 nM
[18] = target: Myosin-IIIa (Homo sapiens) (UniProt Q8NEV4); details: Compound concentration 1000.0 nM
[19] = target: Serine/threonine-protein kinase Nek11 (Homo sapiens) (UniProt Q8NG66); details: Compound concentration 1000.0 nM
Serine/threonine-protein kinase Nek11 (Homo sapiens), sequence (Q8NG66 whole entry): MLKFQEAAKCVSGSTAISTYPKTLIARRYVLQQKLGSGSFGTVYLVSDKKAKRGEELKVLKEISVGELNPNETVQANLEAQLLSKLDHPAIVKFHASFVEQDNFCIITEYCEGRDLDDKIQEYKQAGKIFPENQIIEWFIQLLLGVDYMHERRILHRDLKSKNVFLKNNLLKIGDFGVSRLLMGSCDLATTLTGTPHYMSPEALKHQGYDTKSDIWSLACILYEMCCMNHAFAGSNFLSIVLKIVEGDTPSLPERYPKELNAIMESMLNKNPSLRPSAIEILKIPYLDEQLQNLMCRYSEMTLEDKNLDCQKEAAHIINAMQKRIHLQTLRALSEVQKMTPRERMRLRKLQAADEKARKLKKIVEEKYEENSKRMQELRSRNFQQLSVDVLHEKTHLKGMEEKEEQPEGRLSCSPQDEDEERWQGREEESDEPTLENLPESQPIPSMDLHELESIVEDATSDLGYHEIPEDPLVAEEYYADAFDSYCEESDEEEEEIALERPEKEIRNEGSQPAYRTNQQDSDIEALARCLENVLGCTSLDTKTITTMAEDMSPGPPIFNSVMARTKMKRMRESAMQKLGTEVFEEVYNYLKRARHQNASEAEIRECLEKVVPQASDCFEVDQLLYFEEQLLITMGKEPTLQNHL

[20] = target: Serine/threonine-protein kinase Nek2 (Homo sapiens) (UniProt P51955); details: Compound concentration 1000.0 nM
[21] = target: Serine/threonine-protein kinase Nek3 (Homo sapiens) (UniProt P51956); details: Compound concentration 1000.0 nM
[22] = target: Mitogen-activated protein kinase 14 (Homo sapiens, UniProt Q16539); details: Compound concentration 1000.0 nM
Mitogen-activated protein kinase 14, sequence (Q16539 whole entry): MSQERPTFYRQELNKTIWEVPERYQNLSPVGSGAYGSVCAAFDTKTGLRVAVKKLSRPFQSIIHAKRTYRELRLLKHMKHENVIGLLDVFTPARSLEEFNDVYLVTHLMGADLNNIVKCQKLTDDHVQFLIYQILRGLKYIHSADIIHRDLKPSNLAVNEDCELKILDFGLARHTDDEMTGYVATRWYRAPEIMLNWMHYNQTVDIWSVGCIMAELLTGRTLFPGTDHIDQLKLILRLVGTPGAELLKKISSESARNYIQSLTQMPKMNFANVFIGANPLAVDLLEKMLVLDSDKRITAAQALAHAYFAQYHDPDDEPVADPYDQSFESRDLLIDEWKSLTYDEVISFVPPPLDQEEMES

[23] = target: Cyclin-dependent kinase 17 (Homo sapiens) (UniProt Q00537); details: Compound concentration 1000.0 nM
[24] = target: Calcium-dependent protein kinase 1 (Plasmodium falciparum) (UniProt P62344); details: Compound concentration 1000.0 nM
Calcium-dependent protein kinase 1 (Plasmodium falciparum), sequence (P62344 2-524 limits assumed): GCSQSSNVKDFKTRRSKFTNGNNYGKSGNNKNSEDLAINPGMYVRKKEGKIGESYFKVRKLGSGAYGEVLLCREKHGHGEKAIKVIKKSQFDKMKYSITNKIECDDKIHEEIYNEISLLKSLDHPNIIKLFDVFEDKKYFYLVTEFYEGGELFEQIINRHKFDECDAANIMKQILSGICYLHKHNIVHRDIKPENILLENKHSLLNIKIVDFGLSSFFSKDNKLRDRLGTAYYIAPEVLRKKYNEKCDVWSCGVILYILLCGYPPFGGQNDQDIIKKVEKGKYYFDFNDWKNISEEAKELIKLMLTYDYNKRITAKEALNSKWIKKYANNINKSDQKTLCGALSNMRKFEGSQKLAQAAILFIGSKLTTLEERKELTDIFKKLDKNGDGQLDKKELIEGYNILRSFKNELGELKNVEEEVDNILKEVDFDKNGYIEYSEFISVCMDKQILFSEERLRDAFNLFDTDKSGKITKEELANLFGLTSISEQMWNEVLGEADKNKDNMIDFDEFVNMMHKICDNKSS

[25] = system: Phosphatidylinositol 4,5-bisphosphate 3-kinase catalytic subunit alpha isoform (Homo sapiens), P42336 [H1047Y]; details: Compound concentration 1000.0 nM
[26] = target: Serine/threonine-protein kinase D2 (Homo sapiens) (UniProt Q9BZL6); details: Compound concentration 1000.0 nM
[27] = target: Ribosomal protein S6 kinase alpha-6 (Homo sapiens) (UniProt Q9UK32); details: Compound concentration 1000.0 nM
Ribosomal protein S6 kinase alpha-6 (Homo sapiens), sequence (Q9UK32 whole entry): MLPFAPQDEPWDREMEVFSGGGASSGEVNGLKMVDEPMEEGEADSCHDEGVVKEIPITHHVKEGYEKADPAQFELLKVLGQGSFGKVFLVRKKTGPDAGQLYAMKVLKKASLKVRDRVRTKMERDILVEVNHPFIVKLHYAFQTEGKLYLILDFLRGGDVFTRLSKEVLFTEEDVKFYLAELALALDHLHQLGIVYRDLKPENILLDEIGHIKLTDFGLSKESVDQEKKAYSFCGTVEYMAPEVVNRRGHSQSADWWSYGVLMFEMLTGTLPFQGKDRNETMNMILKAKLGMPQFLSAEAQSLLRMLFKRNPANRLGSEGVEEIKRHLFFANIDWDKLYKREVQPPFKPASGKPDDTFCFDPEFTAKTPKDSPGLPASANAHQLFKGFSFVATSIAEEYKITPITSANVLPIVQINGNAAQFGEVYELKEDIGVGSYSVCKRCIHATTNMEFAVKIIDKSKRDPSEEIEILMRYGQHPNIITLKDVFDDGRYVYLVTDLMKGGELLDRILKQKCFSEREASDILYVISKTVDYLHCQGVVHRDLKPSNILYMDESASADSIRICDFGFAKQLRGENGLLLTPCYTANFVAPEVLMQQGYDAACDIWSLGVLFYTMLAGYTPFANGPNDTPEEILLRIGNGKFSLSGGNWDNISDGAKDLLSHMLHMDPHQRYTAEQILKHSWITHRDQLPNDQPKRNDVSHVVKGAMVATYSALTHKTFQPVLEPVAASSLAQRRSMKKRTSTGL

[28] = target: Serine/threonine-protein kinase TAO3 (Homo sapiens) (UniProt Q9H2K8); details: Compound concentration 1000.0 nM
[29] = target: TRAF2 and NCK-interacting protein kinase (Homo sapiens) (UniProt Q9UKE5); details: Compound concentration 1000.0 nM
[30] = target: NT-3 growth factor receptor (Homo sapiens) (UniProt Q16288); details: Compound concentration 1000.0 nM
NT-3 growth factor receptor (Homo sapiens), sequence (Q16288 32-839 limits assumed): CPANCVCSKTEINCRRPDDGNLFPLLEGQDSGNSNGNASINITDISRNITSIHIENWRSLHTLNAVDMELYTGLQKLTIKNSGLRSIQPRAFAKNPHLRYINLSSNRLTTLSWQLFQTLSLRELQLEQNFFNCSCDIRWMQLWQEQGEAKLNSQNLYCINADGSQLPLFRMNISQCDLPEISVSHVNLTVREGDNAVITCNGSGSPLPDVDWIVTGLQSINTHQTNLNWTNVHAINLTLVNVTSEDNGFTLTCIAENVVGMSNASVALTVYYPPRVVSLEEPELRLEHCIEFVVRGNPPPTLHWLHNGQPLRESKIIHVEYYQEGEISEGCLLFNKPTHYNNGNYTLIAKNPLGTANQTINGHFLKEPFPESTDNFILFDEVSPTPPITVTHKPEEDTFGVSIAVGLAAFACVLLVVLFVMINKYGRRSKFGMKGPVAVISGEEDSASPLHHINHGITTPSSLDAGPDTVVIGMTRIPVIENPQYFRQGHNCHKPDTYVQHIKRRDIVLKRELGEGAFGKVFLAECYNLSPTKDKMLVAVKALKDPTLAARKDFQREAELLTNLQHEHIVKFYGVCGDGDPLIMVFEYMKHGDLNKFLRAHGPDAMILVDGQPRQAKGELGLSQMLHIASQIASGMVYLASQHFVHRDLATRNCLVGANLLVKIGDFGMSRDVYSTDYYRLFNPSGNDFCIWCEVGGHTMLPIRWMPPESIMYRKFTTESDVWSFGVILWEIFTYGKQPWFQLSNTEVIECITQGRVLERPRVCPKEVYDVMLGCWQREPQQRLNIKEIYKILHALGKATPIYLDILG

[31] = target: Serine/threonine-protein kinase WNK1 (Homo sapiens) (UniProt Q9H4A3); details: Compound concentration 1000.0 nM
[32] = target: Tyrosine-protein kinase ZAP-70 (Homo sapiens) (UniProt P43403); details: Compound concentration 1000.0 nM
[33] = target: T1, D(4) dopamine receptor (Homo sapiens) (UniProt P21917); details: Compound concentration 10.0 uM
T1 sequence (whole entry): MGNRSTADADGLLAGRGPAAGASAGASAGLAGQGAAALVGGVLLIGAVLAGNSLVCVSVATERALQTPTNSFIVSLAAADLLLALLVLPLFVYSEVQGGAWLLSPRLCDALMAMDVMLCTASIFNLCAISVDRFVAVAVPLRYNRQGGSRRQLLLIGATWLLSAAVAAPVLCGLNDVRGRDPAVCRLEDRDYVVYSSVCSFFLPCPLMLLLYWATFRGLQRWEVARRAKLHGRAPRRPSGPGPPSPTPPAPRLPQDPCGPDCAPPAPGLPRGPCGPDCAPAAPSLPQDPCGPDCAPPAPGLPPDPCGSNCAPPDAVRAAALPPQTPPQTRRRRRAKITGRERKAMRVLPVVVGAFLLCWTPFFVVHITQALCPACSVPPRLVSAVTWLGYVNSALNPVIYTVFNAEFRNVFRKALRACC

[34] = target: T2, Alpha-2C adrenergic receptor (Homo sapiens) (UniProt P18825); details: Compound concentration 10.0 uM
T2 sequence (whole entry): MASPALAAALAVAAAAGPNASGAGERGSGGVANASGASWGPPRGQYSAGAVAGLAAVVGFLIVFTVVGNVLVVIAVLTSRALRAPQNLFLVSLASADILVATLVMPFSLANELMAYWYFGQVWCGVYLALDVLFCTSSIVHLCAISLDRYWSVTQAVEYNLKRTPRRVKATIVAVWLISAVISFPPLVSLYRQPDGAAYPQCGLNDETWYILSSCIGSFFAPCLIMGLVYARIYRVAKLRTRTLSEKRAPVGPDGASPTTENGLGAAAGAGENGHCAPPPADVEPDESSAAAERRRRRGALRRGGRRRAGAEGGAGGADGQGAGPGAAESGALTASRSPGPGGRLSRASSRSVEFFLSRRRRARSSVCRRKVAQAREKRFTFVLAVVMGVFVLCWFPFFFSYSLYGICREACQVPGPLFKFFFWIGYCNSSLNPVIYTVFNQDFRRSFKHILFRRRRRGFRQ

SMILES	Ki [1] [µM]	Ki [2] [µM]	residual activity [3] [%]	residual activity [4] [%]	residual activity [5] [%]	residual activity [6] [%]	residual activity [7] [%]	residual activity [8] [%]	residual activity [9] [%]	residual activity [10] [%]	residual activity [11] [%]	residual activity [12] [%]	residual activity [13] [%]	residual activity [14] [%]	residual activity [15] [%]	residual activity [16] [%]	residual activity [17] [%]	residual activity [18] [%]	residual activity [19] [%]	residual activity [20] [%]	other results
Cc1c(C(=O)O)cc(-c2ccc(C3CCNCC3)cc2)c2ccc(-c3ccc(C(F)(F)F)cc3)cc12 [PPTN-NC]	2.15	3.6	85	100	100	100	100	100	100	100	100	100	100	100	88	92	96	100	100	100	residual activity [21]: 85%; residual activity [22]: 100%; residual activity [23]: 100%; residual activity [24]: 100%; residual activity [25]: 100%; residual activity [26]: 100%; residual activity [27]: 100%; residual activity [28]: 100%; residual activity [29]: 100%; residual activity [30]: 100%; residual activity [31]: 100%; residual activity [32]: 100%; inhibition [33]: 8.42%; inhibition [34]: 46.4%
O=C(O)c1cc(-c2ccc(C3CCNCC3)cc2)c2ccc(-c3ccc(C(F)(F)F)cc3)cc2c1 [PPTN]	10	3.23	100	100	100	100	100	100	100	100	100	100	100	100	51	100	90	100	100	100	residual activity [21]: 100%; residual activity [22]: 100%; residual activity [23]: 100%; residual activity [24]: 100%; residual activity [25]: 84%; residual activity [26]: 100%; residual activity [27]: 100%; residual activity [28]: 100%; residual activity [29]: 100%; residual activity [30]: 100%; residual activity [31]: 100%; residual activity [32]: 100%; inhibition [33]: 10.4%; inhibition [34]: 30.2%
